Literature values, collected in patent US11033613B2, “Methods and compositions for treating cancer” (Memorial Sloan Kettering Cancer Center, priority 2015, dated 2021).

System: CD4+ and CD8+ responses
Conditions: according to data from preclinical and phase 1 studies

Sequence: SGQAYMFPNAPYLPSCLES [WT1-122A1 long]
- stimulation of CD4+ and CD8+ responses: stimulate both CD4+ and CD8+ responses
